Measurements published in patent publication US10723727B2, “Tubulysin analogs and methods for their preparation” (priority 2016, dated 2020).

Key:
[1] = system: HT-29 cells; assay: In vitro cell assay (MTS cell viability), HT-29 (target non-expressing); assay type: cell-based; conditions: Homo sapiens, HT-29, 96 h, free compounds; 96 hours after treatment; read-out: HT29 IC50
Method: In Vitro Cell Assay Procedure
Target expressing (BT474 (breast cancer), N87 (gastric cancer), HCC1954 (breast cancer), MDA-MB-361-DYT2 (breast cancer)) or non-expressing (HT-29) cells were seeded in 96-well cell culture plates for 24 hours before treatment. Cells were treated with 3-fold serially diluted antibody-drug conjugates or free compounds (i. e. no antibody conjugated to the drug) in duplicate at 10 concentrations. Cell viability was determined by CellTiter 96® AQueous One Solution Cell Proliferation MTS Assay (Promega, Madison Wis.) 96 hours after treatment. Relative cell viability was determined as percentage of untreated control. IC50 values were calculated using a four parameter logistic model #203 with XLfit v4. 2 (IDBS, Guildford, Surry, UK).

[2] = molecular target: T1, tubulin/RB3-stathmin-like-domain (RB3-SLD-tdm) complex (Sus scrofa, UniProt P02550+P02554); assay: Tubulin Peptide-Binding Site Competition Assay (fluorescence polarization); parameters: species or system Porcine; conditions: FP competition with BODIPY-labeled vinca peptide probe; read after five hours at 22° C.; read-out: Tubulin Peptide-Binding Site Competition Assay IC50
T1 construct: purchased Cytoskeleton, Inc. T240; host or cells: RB3-SLD was made in house in E. coli
Outline: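 The BODIPY vinca-peptide probe was premixed with test compound and then added to porcine tubulin/RB3-SLD, at final concentrations of 3 nM probe, 6 nM tubulin and 100 nM RB3-SLD. The buffer was PIPES pH 7.0 with Tween 20, MgCl2 and EGTA, and 11-point dilutions were run in duplicate. IC50 was fitted from the fluorescence polarization decrease and converted to Ki.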

[3] = system: MDA-MB-361-DYT2 (breast cancer) cells; assay: In vitro cell assay (MTS cell viability), MDA-MB-361-DYT2; assay type: cell-based; conditions: 96 h, free compounds; 96 hours after treatment
Outline: (§1)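 Cells seeded 24 h before treatment with antibody-drug conjugates or free compounds, 3-fold serial dilutions at 10 concentrations in duplicate. Viability read by MTS assay 96 h after treatment as % of untreated control; IC50 from four-parameter logistic fit.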

[4] = system: N87 (gastric cancer) cells; assay: In vitro cell assay (MTS cell viability), N87; assay type: cell-based; conditions: 96 h, free compounds; 96 hours after treatment
Outline: as §1

Compound | IC50 [1] [nM] | IC50 [2] [nM] | IC50 [3] [nM] | IC50 [4] [nM]
CC[C@H](C)[C@H](NC(=O)C12CCC(CC1)N2C)C(=O)N(C)[C@H](C[C@@H](OC(C)=O)c1nc(C(=O)N[C@@H](Cc2ccccc2)C[C@H](C)C(=O)OC)cs1)C(C)C [#B13, methyl (2S,4R)-4-[({2-[(1R,3R)-1-(acetyloxy)-4-methyl-3-{methyl[(2S,3S)-3-methyl-2-{[(7-methyl-7-azabicyclo[2.2.1]hept-1-yl)carbonyl]amino}pentanoyl]amino}pentyl]-1,3-thiazol-4-yl}carbonyl)amino]-2-methyl-5-phenylpentanoate] | < 0.022 | 3.7 | < 0.036 | < 0.061
CCNC(=O)O[C@H](C[C@H](C(C)C)N(C)C(=O)[C@@H](NC(=O)C12CCCC(CCC1)N2C)[C@@H](C)CC)c1nc(C(=O)N[C@@H](Cc2ccc(N)cc2)C[C@H](C)C(=O)O)cs1 [#B27, (2S,4R)-5-(4-aminophenyl)-4-{[(2-{(1R,3R)-1-[(ethylcarbamoyl)oxy]-4-methyl-3-(methyl{N-[(9-methyl-9-azabicyclo[3.3.1]non-1-yl)carbonyl]-L-isoleucyl}amino)pentyl]-1,3-thiazol-4-yl}carbonyl)amino]-2-methylpentanoic acid] | 5.39 | < 0.648 | 5.46 | 6.42
CC[C@H](C)[C@H](NC(=O)[C@@]1(C)CCCN1C)C(=O)N(C)[C@H](C[C@@H](OC(C)=O)c1nc(C(=O)NCC2(c3ccccc3)CC2)cs1)C(C)C [#B53, 1,2-dimethyl-D-prolyl-N-[(1R,3R)-1-(acetyloxy)-4-methyl-1-(4-{[(1-phenylcyclopropyl)methyl]carbamoyl}-1,3-thiazol-2-yl}pentan-3-yl]-N-methyl-L-isoleucinamide] | 45.1 | 12.9 | 34 | 52.4
CC[C@H](C)[C@H](NC(=O)[C@@]1(C)CCCN1C)C(=O)N(C)[C@H](C[C@@H](OC(=O)N(C)C)c1nc(C(=O)N[C@@H](Cc2ccc(N)cc2)C[C@H](C)C(=O)O)cs1)C(C)C [#B31, 1,2-dimethyl-D-prolyl-N-{(1R,3R)-1-(4-{[(2R,4S)-1-(4-aminophenyl)-4-carboxypentan-2-yl]carbamoyl}-1,3-thiazol-2-yl)-1-[(dimethylcarbamoyl)oxy]-4-methylpentan-3-yl}-N-methyl-L-isoleucinamide] | 3.86 | 3.1 | 4.04 | 3.83
CC[C@H](C)[C@H](NC(=O)[C@@]1(C)CCCN1C)C(=O)N(C)[C@H](C[C@@H](OC(C)=O)c1nc(C(=O)N[C@@H](Cc2ccccc2)C[C@H](C)C(=O)OC)cs1)C(C)C [#B5, 1,2-dimethyl-D-prolyl-N-[(1R,3R)-1-(acetyloxy)-1-(4-{[(2R,4S)-5-methoxy-4-methyl-5-oxo-1-phenylpentan-2-yl]carbamoyl}-1,3-thiazol-2-yl)-4-methylpentan-3-yl]-N-methyl-L-isoleucinamide] | 1.11 | 22.4 | 0.361 | 0.763
CC[C@H](C)[C@H](NC(=O)[C@@]1(C)CCCN1C)C(=O)N(C)[C@H](C[C@@H](OC(C)=O)c1nc(C(=O)N[C@@H](Cc2ccc(N)cc2)C[C@H](C)C(=O)O)cs1)C(C)C [#B9, 1,2-dimethyl-D-prolyl-N-[(1R,3R)-1-(acetyloxy)-1-(4-{[(2R,4S)-1-(4-aminophenyl)-4-carboxypentan-2-yl]carbamoyl}-1,3-thiazol-2-yl)-4-methylpentan-3-yl]-N-methyl-L-isoleucinamide] | 0.642 | 2.5 | 0.765 | 1.07
